Laboratory results reported in US20210246505A1, “COMPOSITIONS & METHODS FOR MONITORING DNA REPAIR” (MEMORIAL SLOAN KETTERING CANCER CENTER, priority 2018, published 2021).

Tests used:
Type in all cases: cell-based, human
HAP1 cells = experiment: DSBR-seq of a Cas9 break at the AAVS1 locus, HAP1 cells
Text: (§1) In this Example, transfection of the pX330 plasmid, containing the Cas9 and guide RNA (gRNA) expression cassettes to the AAVS1 safe locus, is used. Genomic DNA (gDNA) is collected 3 days post-transfection. To asses—DNA repair by HR, a donor template containing three substitutions around the protospacer adjacent motif (PAM) which limits cut-recut cycles is transfected also. A 500 bp amplicon surrounding the break is used for rapid measurement of DSBR errors via the widely used T7 endonuclease I assay. A 201 bp amplicon surrounding the cut site, but outside of the HR template is amplified, purified via E-gel electrophoresis system, converted into Illumina sequencing libraries, quantified via qPCR, and then sequenced at 200,000× read depth using paired end 150 bp (PE150) Mi-Seq. Unique, nonsingleton reads (occurring more than once) are aligned to the reference sequence using pairwise alignment (for example using Python). The indels and substitutions are cataloged relative to the break site and microhomology (MH) is determined (for example using an internally developed and validated algorithm, see FIG. 8). The reads are categorized as consequences of NHEJ (≤5 bp deletion) or MMEJ (>5 bp deletion with >2 bp MH). The donor template DNA contains key substitutions—thereby providing a readout of HR. […] The PE150 reads are merged using PEAR and then condensed into a set of unique reads. […]

[1] = system: HCC1937 BRCA1 deficient cell line; experiment: DSBR-seq of a Cas9 break at the AAVS1 locus, HCC1937 BRCA1 deficient cells; settings: with or without inhibitor
Text: as §1

HEK293T cells = experiment: DSBR-seq of a Cas9 break at the AAVS1 locus, HEK293T cells
Text: In this Example, transfection of the pX330 plasmid, containing the Cas9 and guide RNA (gRNA) expression cassettes to the AAVS1 safe locus, is used. Genomic DNA (gDNA) is collected 3 days post-transfection. To asses—DNA repair by HR, a donor template containing three substitutions around the protospacer adjacent motif (PAM) which limits cut-recut cycles is transfected also. A 500 bp amplicon surrounding the break is used for rapid measurement of DSBR errors via the widely used T7 endonuclease I assay. A 201 bp amplicon surrounding the cut site, but outside of the HR template is amplified, purified via E-gel electrophoresis system, converted into Illumina sequencing libraries, quantified via qPCR, and then sequenced at 200,000× read depth using paired end 150 bp (PE150) Mi-Seq. Unique, nonsingleton reads (occurring more than once) are aligned to the reference sequence using pairwise alignment (for example using Python). The indels and substitutions are cataloged relative to the break site and microhomology (MH) is determined (for example using an internally developed and validated algorithm, see FIG. 8). The reads are categorized as consequences of NHEJ (≤5 bp deletion) or MMEJ (>5 bp deletion with >2 bp MH). The donor template DNA contains key substitutions—thereby providing a readout of HR. These experiments are also performed in cells that are isogenic knockout controls of key NHEJ, MMEJ and HR components and using pharmacologic controls in which DNA-PKcs, RAD51, and PARP are inhibited […]. By comparing the experimental reads against those obtained from the knockout controls and/or pharmacologic controls, the specific reads dependent on each pathway were discovered. (FIG. 1). Thus, these methods involve empirically-determined deletion profiles, derived from known controls deficient in each pathway, as signatures to clearly separate and quantify DSBR events occurring by HR, NHEJ and MMEJ. The single double strand break allows for direct analysis of pathway choice in a native genomic location with a blunt-ended DSB. Because both cell cycle dependent pathways (MMEJ and […]) are measured in the same experiment, there is an effective built-in control for confounding cell cycle effects on the use of these pathways. The AAVS1 genomic location was chosen due to its characterization as a safe site of integration without any known phenotypic effects. Transfection of the pX330 plasmid, containing the Cas9 and gRNA expression cassettes, is performed by nucleofection or liposome-based techniques. To detect DNA repair by homologous recombination (HR), a donor template is used containing three substitutions, one on the gRNA side of the break and two on the other side of the break, destroying the protospacer adjacent motif (PAM) and thereby limiting cut-recut cycles. A 500 bp amplicon surrounding the break is used for rapid measurement of DSBR errors via the widely used T7 endonuclease I assay. A 201 bp amplicon surrounding the cut site, but outside of the HR template is amplified, purified via E-gel electrophoresis system, converted into Illumina sequencing libraries, quantified via qPCR, and then sequenced at 200,000× read depth. Paired end 150 bp (PE150) reads are obtained, affording a central 100 bp region of high sequence fidelity adjacent to the cut site. The PE150 reads are merged using PEAR and then condensed into a set of unique reads. Unique reads that only occur once are discarded, as they are likely low-quality reads due to sequencing error. These unique, nonsingleton reads are aligned to the reference sequence using pairwise alignment through Python. The indels and substitutions are cataloged relative to the breaksite. […] The profile of deletion sizes and extent of microhomology differs between break sites, likely owing to site dependent availability of microhomology. We utilized the DNA-PKcs inhibitor NU7441 to measure NHEJ inhibition. […]

SMILES | 12 base pair deletion with 5 bp of microhomology read (HAP1 cells; HAP1 cells) | HR observed [1] | 12 base pair deletion with 5 bp of microhomology read (HEK293T cells; 293T cells) | specific 1 bp deletion read (HEK293T cells; 293T cells) | HR usage (HEK293T cells; FIG. 1I) | MMEJ usage (HEK293T cells; FIG. 1I) | NHEJ usage (HEK293T cells; FIG. 1I) | decrease of the amplitude of the deletion peak (HEK293T cells; HEK293T cells, DSB at position 120 of amplicon) | frequency of HR (donor substitution) peaks (HEK293T cells; HEK293T cells, donor template) | width of the deletion peak (HEK293T cells; HEK293T cells, reflects use of MMEJ) | increase of the frequency of introduced errors overall (HAP1 cells; G1 arrest by the drug) [fold]
O=c1cc(N2CCOCC2)oc2c(-c3cccc4c3sc3ccccc34)cccc12 [NU7441] | enhanced | no HR is observed | enhanced | suppressed | increases | increases | suppresses | more than 90% | increased in frequency | increases | 
CC(=O)c1c(C)c2cnc(Nc3ccc(N4CCNCC4)cn3)nc2n(C2CCCC2)c1=O [palbociclib] |  |  |  |  |  |  |  |  |  |  | ~4
